Measurements reported in patent US9938335B2, “Glucagon and GLP-1 co-agonist compounds” (Eli Lilly and Company, priority 2015, dated 2018).
Marks after values point to notes of the source that are not given here.

What was measured:
Format in all cases: in vivo, mouse
[1] = tested on: DIO mice (C57BL/6); assay: Chronic treatment in DIO mice (body weight, fat, food intake)
Description: The effects on food intake and body weight/fat are evaluated in DIO mice. Five to six months old DIO mice (C57BL/6) from Taconic Biosciences are used in this study. Animals are individually housed in a temperature-controlled (24° C.) facility with a 12 hour light/dark cycle (lights on 6:00), and free access to food and water. The mice are acclimated to the facility for two weeks. The day before the study start, fat mass is measured by nuclear magnetic resonance (NMR) using an Echo Medical System (Houston, Tex.) instrument. The mice are randomized to treatment groups (N=7/group) based on body weight and fat mass so each group had similar starting mean body weight and fat mass. […] SC injections are made on Day 1, 4, 7, 10, and 13. Body weight and food intake are measured right before each injection throughout the study. Percent changes in body weight are calculated as follows: […]
At the completion of the study, total fat mass is measured again by NMR. Statistics are analyzed using ANOVA with Dunnett's comparison by JMP 6. Significance is denoted at p≤0.05 vs. vehicle.

[2] = tested on: STZ-treated DIO mice (C57BL/6); assay: OGTT in Streptozotocin (STZ)-treated DIO mice; settings: male STZ mice, OGTT (2 g/kg) 16 hours post injection
Description: STZ-treated mouse model is a model of early diabetes. Five to six months old male DIO mice (C57BL/6) from Taconic Biosciences are used in this study. Animals are individually housed in a temperature-controlled (24° C.) facility with a 12 hour light/dark cycle (lights on 6:00), and free access to food and water. After two weeks acclimation to the facility, mice are injected intraperitoneally with 50 mg/kg of STZ on Tuesday and Friday. Two weeks post the injection, animals with glucose levels between 180-300 mg/dL at 09:00 are selected for the OGTT study. The day before the study, animals are randomized into groups based on body weight and their glucose levels. Animals are treated with vehicle or testing articles by subcutaneous injection just prior to food removal overnight (16:00). The following morning at 08:00, 16 hours post compound injection, blood samples are taken to measure time zero glucose. Animals are given an oral dose of glucose of 2 g/kg. Glucose is measured 15, 30, 60, and 120 minutes post the oral glucose challenge. Statistics are analyzed using ANOVA with Dunnett's comparison by JMP 6. Significance is denoted at p≤0.05 vs. vehicle.

[3] = tested on: DIO mice (C57BL/6); assay: Acute treatment in DIO mice (PCSK9, FGF-21, cholesterol)
Description: In order to investigate metabolic pathways involved with the treatment of compounds of the present invention independent of weight loss, compounds are tested in DIO mice (C57BL/6) acutely. The mice used are three to four months old on a high fat diet for at least 4 weeks. Animals are individually housed in a temperature-controlled (24° C.) facility with a 12 hour light/dark cycle (lights on 6:00), and free access to food and water. Vehicle or testing compounds were administered to mice by subcutaneous injection at 16:00 the day before the study day. Animals were sacrificed 16 hours later to collect blood via cardia puncture. Statistics are analyzed using ANOVA with Dunnett's comparison for JMP-6. Significance is denoted at p≤0.05 vs vehicle.
Food intake was decreased to a similar level in all treatment groups, which may indicate that changes in cholesterol, PCSK9 and FGF-21 are food-intake independent.

[4] = tested on: DIO mice (C57BL/6); assay: Oral Glucose Tolerance Test (OGTT) in DIO mice; settings: male DIO mice, OGTT (2 g/kg) 16 hours post injection
Description: Diet-induced obese (DIO) mouse model is a model of insulin resistance. Five to six months old male DIO mice (C57BL/6) from Taconic Biosciences are used in this study. Animals are individually housed in a temperature-controlled (24° C.) facility with a 12 hour light/dark cycle (lights on 06:00), and free access to food and water. The acclimation period to the facility is two weeks. The day before the study, animals are randomized into groups based on their body weight. That same afternoon, animals are fasted in clean cages and dosed with vehicle (40 mM Tris-HCl, pH 8.0) or test articles by subcutaneous injection. The following morning, 16 hours post the peptide injection, fasting body weights are obtained to calculate glucose doses. Blood samples are taken to measure time zero glucose. Animals are then given an oral gavage of glucose (2 g/kg). Two glucose readings via glucometers were obtained at 15, 30, 60 and 120 minutes post oral glucose. The average of two glucose readings is reported at each time point and an area under the curve is calculated. Statistics were analyzed using ANOVA with Dunnett's comparison by JMP 6; significance is denoted at p≤0.05 vs. vehicle.

[5] = tested on: DIO mice (C57BL/6); assay: Effects on energy expenditure in DIO mice (indirect calorimetry); settings: for Cumulative Heat (Kcal/kg lean mass/3 day): test article 15 nmol/kg, semaglutide 60 nmol/kg sc every three days
Description: Seven to eight months old male DIO mice (C57BL/6) weighing 45-50 g are used in this study to assess the effect of compounds of the present invention on energy metabolism. Animals are individually housed in a temperature-controlled (24° C.) facility with a 12 hour light/dark cycle (lights on 22:00), and free access to food (TD95217)(Teklad) and water. After 2 weeks acclimation to the facility, mice are randomized to treatment groups (N=6/group) based on body weight so each group has similar starting mean body weight. Animals are placed in a PhenoMaster/LabMaster calorimeter (TSE Systems, Chesterfield, Mo.) for 8 days of acclimation.
Heat and […] (RER) are measured by indirect calorimetry as described using an open-circuit calorimetry system. RER is the ratio of the volume of CO2 produced (VCO2) to the volume of O2 consumed (VO2). Heat is calculated with lean body weight considered. The energy expenditure is kcal/kg/3 day and expressed as mean±SEM of 6 mice per group. Statistical significance is assessed by two-way ANOVA followed by Tukey's multiple comparison test.

[6] = 30 nmol/kg sc every three days for 15 days
[7] = 60 nmol/kg sc every three days for 15 days
[8] = 30 nmol/kg sc, 16 hours post dose

semaglutide [reference compound]
Body Fat (% change vs. vehicle from Day 1) [1, 6]: −20* % | Body Weight (% change vs. vehicle from Day 1) [1, 6]: −8% | Body Fat (% change vs. vehicle from Day 1) [1, 7]: −29* % | Body Weight (% change vs. vehicle from Day 1) [1, 7]: −12* % | Glucose AUC (% of vehicle) ([2]; 1 nmol/kg sc): 72* % of vehicle | Glucose AUC (% of vehicle) ([2]; 3 nmol/kg sc): 53* % of vehicle | Glucose AUC (% of vehicle) ([2]; 10 nmol/kg sc): 35* % of vehicle | Cholesterol (% of vehicle) [3, 8]: 117.6 % of vehicle | FGF-21 (% of vehicle) [3, 8]: 75 % of vehicle | PCSK9 (% of vehicle) [3, 8]: 115.3 % of vehicle | serum cholesterol, PCSK9 and FGF-21 levels ([3]; acute treatment): does not decrease serum cholesterol and PCSK9 levels and increase FGF-21 levels | Glucose AUC (% of vehicle) ([4]; 1 nmol/kg sc): 59* % of vehicle | Glucose AUC (% of vehicle) ([4]; 3 nmol/kg sc): 51* % of vehicle | Glucose AUC (% of vehicle) ([4]; 10 nmol/kg sc): 38* % of vehicle | metabolic rate ([5]; DIO mice, chronic treatment): no effect on metabolic rate | Cumulative Heat (Kcal/kg lean mass/3 day) ([5]; Day 1 to Day 4): 1973 ± 51 Kcal/kg lean mass/3 day | Cumulative Heat (Kcal/kg lean mass/3 day) ([5]; Day 4 to Day 7): 2018 ± 54 Kcal/kg lean mass/3 day | Cumulative Heat (Kcal/kg lean mass/3 day) ([5]; Day 7 to Day 10): 2151 ± 48 Kcal/kg lean mass/3 day | Cumulative Heat (Kcal/kg lean mass/3 day) ([5]; Day 10 to Day 13): 2138 ± 46 Kcal/kg lean mass/3 day
